The values that follow come from patent publication US20160030391A1, “METHODS AND COMPOSITIONS FOR IMPROVING COGNITIVE FUNCTION” (THE JOHNS HOPKINS UNIVERSITY, priority 2013, published 2016).

The test system of one experiment is MAM-treated rats. Conditions: cited from earlier work.
Experiment [1] relates to ventral tegmental dopamine (DA) neurons of MAM rats. Conditions: cited from earlier work.
Experiment [2] has as its system HPC neurons in saline-treated and MAM-treated animals. Conditions: cited from earlier work.
The subject of experiment [3] is Memory-impaired aged rats. Briefly: Radial Arm Maze task, 2-hr delay, acute brivaracetam or seletracetam. The note with it: 0.0625-4 mg/kg i.p. 30-40 min prior to test sessions; repeated measures ANOVA. In kind it is in vivo, rat. As to the method: (§1) The radial arm maze experiments used acute administration of seletracetam (0-4 mg/kg), brivaracetam (0-4 mg/kg), or saline vehicle given by intraperitoneal injection (in a volume of 1 ml/kg) 30-40 min prior to test sessions. In the chronic treatment experiment, memory-impaired aged rats were implanted subcutaneously in the intrascapular region with osmotic mini-pumps (ALZET, Durect Corporation, Cupertino, Calif.) with brivaracetam (2 mg/kg/day) or saline vehicle starting two weeks prior to assessment in the water maze.
A radial arm maze (RAM) task was used to assess effects of acute drug treatment with seletracetam and brivaracetam. This protocol allowed within-subject assessment across drugs at different doses. The radial maze consisted of eight arms projecting from each side of an octagonal center platform, with a food well located at the distal end of each arm. Plexiglas blocks could be positioned to prevent entry into any arm. Extra-maze cues were provided in the room surrounding the maze and illumination was provided by an overhead light.
Pre-training, as described in detail in Chappell et al. Neuropharmacology 37: 481-487, (1998), consisted of habituation, standard win-shift training, and win-shift training with delays interposed between information and memory test phases. […]

The test system of experiment [4] is Memory-impaired aged rats. The experiment in a line: water maze probe test after chronic brivaracetam (osmotic mini-pumps). The note with it: brivaracetam 2 mg/kg/day, 14 days. The format is in vivo, rat. The protocol: as §1
Rats were trained and tested in a novel water maze environment to assess the effect of drug treatment. The water maze used here was housed in a different building and was surrounded by curtains with a novel set of patterns relative to the maze used for initial assessment of cognitive status. The training protocol consisted of 6 trials per day for 2 days to locate a submerged escape platform. On each trial, a rat was released in the maze from one of four equally spaced starting positions around the perimeter of the pool. The starting position varied from trial to trial. […] The rat was then removed from the platform and placed in a holding cage for another 40 s before the next trial. Approximately 24 hr after the last training trial, a probe test in the absence of the escape platform was given to assess spatial memory.

For the molecule `C#Cc1ccc2c(c1)C(c1ccccc1F)=N[C@H](C)c1c(C(=O)OCC)ncn1-2` [SH-053-2′F—R—CH3], in the experiment on MAM-treated rats (following the α5GABAAR PAM treatment), the “increased locomotor response to amphetamine in MAM-treated rats” value is listed as “reduced”. Besides, the “number of spontaneously active DA neurons in the ventral tegmental area (VTA) of MAM rats” value in experiment [1] (administered systemically and directly infused into the ventral HPC) is given as “reduces”. Besides, the “cortical-evoked responses of HPC neurons” value in experiment [2] is on record as “diminished”.

For the molecule `NC1=N[C@H](O)[C@H]2[C@H]3O[C@]4(O)O[C@@H]([C@@H](O)[C@@]2(N1)[C@@H]4O)[C@]3(O)CO` [TTX, tetrodotoxin], the “augmented amphetamine-induced locomotor behavior” value in the experiment on MAM-treated rats (rat, in vivo) is on record as “normalized”. For the same molecule, the “elevated DA neuron population activity” value in experiment [1] (rat, in vivo) is reported as “completely reversed”.

As for `CCC[C@@H]1CC(=O)N([C@@H](CC)C(N)=O)C1` [brivaracetam], the “number of errors in the retention phase after the 2-hr delay, effect of dose” value in experiment [3] is listed as “significant effect as a function of dose”. Moreover, in experiment [4], the “spatial bias for the target quadrant compared to the other quadrants” value is given as “significant spatial bias”, the “time in the target annulus vs vehicle-treated rats” value is given as “significantly more time” and the “time in the target quadrant vs vehicle-treated rats” value was “significantly more time”.

On to `CC[C@@H](C(N)=O)N1C[C@H](C=C(F)F)CC1=O` [seletracetam], for which the “number of errors in the retention phase after the 2-hr delay, effect of dose” value in experiment [3] is “significant effect as a function of dose”.
